Consider 12 molecules from US7956053B2, “Inhibitors of tyrosine kinases” (Novartis AG, priority 2002, dated 2011).

Common to all, as to assay type: biochemical
The target in one test is T1, c-Abl (Homo sapiens, UniProt P00519).
T1 construct: The His-tagged kinase domain of c-Abl is cloned and expressed in the baculovirus/Sf9 system; His; made in house; host or cells: baculovirus/Sf9
T1 sequence (P00519 242-493 limits assumed): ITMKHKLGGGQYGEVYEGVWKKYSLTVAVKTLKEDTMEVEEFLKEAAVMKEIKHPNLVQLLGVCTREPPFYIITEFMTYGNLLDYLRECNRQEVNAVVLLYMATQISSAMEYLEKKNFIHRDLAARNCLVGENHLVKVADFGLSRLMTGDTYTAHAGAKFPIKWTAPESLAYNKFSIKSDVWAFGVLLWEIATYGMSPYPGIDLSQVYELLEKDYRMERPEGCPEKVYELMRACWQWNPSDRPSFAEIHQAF
Kind of test: Test for activity against c-Abl protein tyrosine kinase (filter binding assay). Summed up:
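His-tagged c-Abl kinase domain expressed in baculovirus/Sf9 cells; 50 ng enzyme with 30 μg/mL poly-AEKY, 5 μM ATP plus [γ-33P]-ATP, pH 7.5 Tris, 1% DMSO. Stopped with EDTA, captured on PVDF membrane and counted by scintillation. Values are % inhibition at 10 μM.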

A further test deals with T2, Flt3 (Homo sapiens, UniProt P36888).
T2 sequence (P36888 27-993): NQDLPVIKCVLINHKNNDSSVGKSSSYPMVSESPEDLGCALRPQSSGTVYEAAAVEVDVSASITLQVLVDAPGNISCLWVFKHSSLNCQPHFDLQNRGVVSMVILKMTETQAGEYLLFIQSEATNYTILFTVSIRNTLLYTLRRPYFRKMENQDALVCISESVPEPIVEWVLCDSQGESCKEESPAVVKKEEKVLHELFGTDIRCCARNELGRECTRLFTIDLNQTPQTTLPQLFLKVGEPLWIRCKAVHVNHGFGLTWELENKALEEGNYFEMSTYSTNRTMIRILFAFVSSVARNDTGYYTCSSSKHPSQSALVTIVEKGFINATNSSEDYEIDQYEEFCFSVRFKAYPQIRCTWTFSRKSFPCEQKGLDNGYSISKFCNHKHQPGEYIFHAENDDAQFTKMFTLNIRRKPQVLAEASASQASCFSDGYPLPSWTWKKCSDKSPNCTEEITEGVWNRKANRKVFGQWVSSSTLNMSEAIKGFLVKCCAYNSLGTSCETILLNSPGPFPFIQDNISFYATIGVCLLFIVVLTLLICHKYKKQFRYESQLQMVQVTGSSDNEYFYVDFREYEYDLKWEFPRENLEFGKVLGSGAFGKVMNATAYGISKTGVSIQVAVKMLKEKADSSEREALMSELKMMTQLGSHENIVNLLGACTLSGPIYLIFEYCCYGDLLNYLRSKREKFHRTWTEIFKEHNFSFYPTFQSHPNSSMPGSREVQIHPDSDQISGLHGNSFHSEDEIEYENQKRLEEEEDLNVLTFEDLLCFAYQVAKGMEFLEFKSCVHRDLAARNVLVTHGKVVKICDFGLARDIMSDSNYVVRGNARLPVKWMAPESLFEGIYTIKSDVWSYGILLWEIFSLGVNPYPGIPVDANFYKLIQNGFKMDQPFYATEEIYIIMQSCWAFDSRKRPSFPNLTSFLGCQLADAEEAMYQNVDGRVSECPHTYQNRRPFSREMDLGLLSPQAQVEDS
The test is described as follows: Enzymatic Flt3 in vitro inhibition. The settings on record: % inhibition at 10 μM. As for the experimental part:
Enzymatic (c-Abl, KDR, Flt3) in vitro inhibition data are presented as % inhibition at 10 μM. The measurements are made as described above in the general description.

A further test addresses KDR (Homo sapiens, UniProt P35968). The test is described as follows: Enzymatic KDR in vitro inhibition. Summed up: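 KDR kinase inhibition was measured in vitro with a radiometric filter-binding method. The kinase was incubated for 10 minutes at room temperature with poly(Glu,Tyr) 4:1 and 8 μM [^33P]-ATP (0.2 μCi) in 20 mM Tris.HCl pH 7.5 buffer with MnCl2, MgCl2, vanadate, PEG 20000, dithiothreitol and 1% DMSO. EDTA stopped the reaction, aliquots were spotted onto PVDF membranes, and after acid and ethanol washes radioactivity was counted. Results are given as % inhibition at 10 μM.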

Chain of KDR (P35968 20-1356): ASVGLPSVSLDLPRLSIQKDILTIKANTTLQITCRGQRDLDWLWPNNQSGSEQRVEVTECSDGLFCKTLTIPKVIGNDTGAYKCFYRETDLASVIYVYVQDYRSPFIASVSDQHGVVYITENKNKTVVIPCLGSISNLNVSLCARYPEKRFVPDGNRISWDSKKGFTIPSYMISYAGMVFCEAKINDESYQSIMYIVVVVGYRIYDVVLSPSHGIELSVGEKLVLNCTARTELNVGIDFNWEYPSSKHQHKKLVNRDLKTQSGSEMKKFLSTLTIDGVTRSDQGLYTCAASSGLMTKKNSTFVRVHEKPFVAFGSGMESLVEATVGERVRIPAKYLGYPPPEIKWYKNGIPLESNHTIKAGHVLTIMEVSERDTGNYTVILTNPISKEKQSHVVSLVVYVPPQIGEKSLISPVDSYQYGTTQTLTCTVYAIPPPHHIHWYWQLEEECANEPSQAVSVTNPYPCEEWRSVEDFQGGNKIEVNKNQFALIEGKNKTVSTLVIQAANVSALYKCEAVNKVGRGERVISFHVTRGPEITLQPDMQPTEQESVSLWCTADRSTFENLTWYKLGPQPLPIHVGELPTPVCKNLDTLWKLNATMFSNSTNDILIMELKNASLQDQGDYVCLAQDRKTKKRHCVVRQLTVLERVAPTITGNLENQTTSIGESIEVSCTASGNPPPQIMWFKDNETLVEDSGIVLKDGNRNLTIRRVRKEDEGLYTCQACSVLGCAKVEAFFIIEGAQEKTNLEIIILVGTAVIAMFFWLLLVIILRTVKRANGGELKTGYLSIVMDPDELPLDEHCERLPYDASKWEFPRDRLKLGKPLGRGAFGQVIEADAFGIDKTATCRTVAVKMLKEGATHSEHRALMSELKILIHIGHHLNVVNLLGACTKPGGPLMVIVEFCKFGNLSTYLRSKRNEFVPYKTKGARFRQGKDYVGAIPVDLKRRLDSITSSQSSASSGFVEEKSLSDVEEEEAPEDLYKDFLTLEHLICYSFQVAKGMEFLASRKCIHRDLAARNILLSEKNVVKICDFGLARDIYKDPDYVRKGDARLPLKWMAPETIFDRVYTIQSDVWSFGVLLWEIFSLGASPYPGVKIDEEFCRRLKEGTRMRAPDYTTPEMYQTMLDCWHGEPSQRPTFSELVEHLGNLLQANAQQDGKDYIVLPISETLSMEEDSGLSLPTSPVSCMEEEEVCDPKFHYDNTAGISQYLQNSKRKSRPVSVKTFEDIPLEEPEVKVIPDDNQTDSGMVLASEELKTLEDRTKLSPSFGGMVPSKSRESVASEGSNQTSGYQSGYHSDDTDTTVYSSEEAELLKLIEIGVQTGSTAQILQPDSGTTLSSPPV

In the case of `CCN(CC)c1cccc(NC(=O)c2ccc(C)c(Nc3nccc(-c4cccnc4)n3)c2)c1` [Example 67, N-[3-(Diethylamino)phenyl]-4-methyl-3-[[4-(3-pyridinyl)-2-Pyrimidinyl]amino]benzamide], the inhibition at 10 µM at c-Abl came out at 98%; at KDR it was 88%. Also, the “Flt3 %@10 μM” value on Flt3 came to 41%.

`Cc1ccc(C(=O)NCC(C)C)cc1Nc1nccc(-c2cccnc2)n1` [Example 9, 4-Methyl-N-(2-methylpropyl)-3-[[4-(3-pyridinyl)-2-pyrimidinyl]amino]benzamide]: the inhibition at 10 µM at c-Abl came out at 44%; against KDR, 39%.

With `Cc1ccc(C(=O)NCCN2CCCCC2)cc1Nc1nccc(-c2cccnc2)n1` [Example 52, 4-Methyl-N-[2-(1-piperidinyl)ethyl]-3-[[4-(3-pyridinyl)-2-pyrimidinyl]amino]benzamide], the inhibition at 10 µM came out at 78% on c-Abl and 37% against KDR.

With “4-Methyl-N-[(5-methylpyrazinyl)methyl]-3-[[4-(3-pyridinyl)-2-pyrimidinyl]amino]benzamide [Example 55]”, on c-Abl (% inhibition at 10 μM), the “Abl %@10 μM” value was determined as 43%. In addition, the “KDR %@10 μM” value at KDR (% inhibition at 10 μM) was determined as 54%.

On to `CCN(CC)C(=O)c1ccc(C)c(Nc2nccc(-c3cccnc3)n2)c1` [Example 31, N,N-Diethyl-4-methyl-3-[[4-(3-pyridinyl)-2-pyrimidinyl]amino]benzamide], for which the inhibition at 10 µM on c-Abl is 68%; against KDR, 83%.

With `Cc1ccc(C(=O)Nc2cccc(Cl)c2)cc1Nc1nccc(-c2cccnc2)n1` [Example 48, N-(3-Chlorophenyl)-4-methyl-3-[[4-(3-pyridinyl)-2-pyrimidinyl]amino]benzamide], the figures for the inhibition at 10 µM on c-Abl and against KDR were 90% and 50%, respectively.

Take `Cc1ccc(C(=O)NCCc2ccccn2)cc1Nc1nccc(-c2cccnc2)n1` [Example 4, 4-Methyl-N-[2-(2-pyridinyl)ethyl]-3-[[4-(3-pyridinyl)-2-pyrimidinyl]amino]-benzamide]: the inhibition at 10 µM on c-Abl was determined as 77%; against KDR, 46%.

`Cc1ccc(C(=O)NCCN(C(C)C)C(C)C)cc1Nc1nccc(-c2cccnc2)n1` [Example 66, N-[2-[bis(1-Methylethyl)amino]ethyl]-4-methyl-3-[[4-(3-pyridinyl)-2-pyrimidinyl]-amino]benzamide]: the inhibition at 10 µM on c-Abl amounted to 67%; against KDR, 23%.

Consider `Cc1ccc(C(=O)NC2CCCCC2)cc1Nc1nccc(-c2cccnc2)n1` [Example 13, N-Cyclohexyl-4-methyl-3-[[4-(3-pyridinyl)-2-pyrimidinyl]amino]benzamide], for which the inhibition at 10 µM was determined as 78% at c-Abl and 48% on KDR.

With `Cc1ccc(C(=O)N2CCN(c3ccccn3)CC2)cc1Nc1nccc(-c2cccnc2)n1` [Example 3, 1-[4-Methyl-3-[[4-(3-pyridinyl)-2-pyrimidinyl]amino]benzoyl]-4-(2-pyridinyl)piperazine], the values for the inhibition at 10 µM at c-Abl and against KDR were 66% and 71%, respectively.

As for `CC(=O)Nc1ccc(NC(=O)c2ccc(C)c(Nc3nccc(-c4cccnc4)n3)c2)cc1` [Example 22, N-[4-(Acetylamino)phenyl]-4-methyl-3-[[4-(3-pyridinyl)-2-pyrimidinyl]amino]benzamide], the inhibition at 10 µM at c-Abl is 59%; at KDR, 7%.

With `COc1ccc(NC(=O)c2ccc(C)c(Nc3nccc(-c4cccnc4)n3)c2)c(C)c1` [Example 23, N-(4-Methoxy-2-methylphenyl)-4-methyl-3-[[4-(3-pyridinyl)-2-pyrimidinyl]amino]benzamide], the inhibition at 10 µM on c-Abl was determined as 90%; against KDR, 67%.

What is called inhibition is the percentage by which the read-out fell short of the control. Low readings indicate a response near the control, high ones a response far below the control.
